1 molecule from patent US8703106B2, “Chlorine dioxide treatment for biological tissue” (priority 2009, dated 2014) can be followed below.

In the assay the test system is bacteria in wounds. The assay is described as follows: Pig wound model, chlorine dioxide with sonication (Example 5). Format: in vivo. Conditions: 400 ppm solution, 8 x 15 min, plus three 4 min sonications at about 20 kHz, 40% duty cycle. As for the experimental part: An experiment was performed to assess the efficacy of a combination therapy of chlorine dioxide administration and sonication on bacterial levels in wounds. The animal model was a pig. Sixteen wounds were introduced and inoculated with bacteria as described in Example 6. On Day 2, treatment was administered. There were control wounds that were not treated with either chlorine dioxide or ultrasound. Test wounds were treated with ultrasonic energy for 4 minutes, using a frequency of about 20 kHz, a 40% duty cycle and a range of power intensities up to 3.5 W/cm^2; each test wound received a total of three sonication treatments. Test wounds were treated with a 400 ppm chlorine dioxide solution applied to each wound in 8 separate, contiguous applications of 15 minutes duration each (total of 120 minutes of exposure to 400 ppm chlorine dioxide) and each application used a fresh specimen of the solution. Each treated wound received a total of three×4 minute sonication over the course of the 2 hours of chlorine dioxide treatment.
Wounds were biopsied after treatment as described in Example 4.

As to `[O][Cl+][O-]` [ClO2, chlorine dioxide], the “bacterial counts in test wounds” value (as a function of power intensity up to 3.5 W/cm^2) was “decrease significantly (multiple log reductions)”. Besides, the “bacterial kill in test wounds” value (at 3.5 W/cm^2) is listed as “substantially complete log kill”.
